Assay results reported in ChEMBL document CHEMBL5729744, “Granzyme B directed imaging and therapy” (2023).

Molecular target: Granzyme B (Homo sapiens, UniProt P10144)
Experiment: Biochemical Assay: Buffer pH7.4: Prepare 1 (M) KH2PO4 and 1 (M) K2HPO4. Titrate 1(M) K2HPO4 with 1 (M) KH2PO4 to obtain pH 7.40. Dilute this buffer 10 fold in Water (30 ml buffer+270 ml of water) to obtain 100 mM phosphate buffer. Adjust pH to 7.40±0.02 using 5(N) HCl or 5(N) NaOH. NADPH Regeneration System (NRS): Prepare a solution containing 13 mM NADP, 33 mM Glucose-6-phosphate, 33 mM MgCl2and 4 U/ml Glucose-6-phosphate dehydrogenase in buffer. Liver Microsome (LM) suspension: Thaw LM vial on ice, then mix 1.0 ml LM (20 mg/ml) with 19 ml buffer [final LM Conc: 1 mg/ml] LM+NRS suspension: Mix 5.0 ml NRS with 20 ml LM suspension [final LM Conc: 0.8 mg/ml] System suitability standard: a synthesized compound having Mol wt 686.2 used as System suitability standard. Dissolve this compound in ice-cold acetonitrile to obtain concentration of 0.1 μg/ml and store at 4° C. Compound Dilution: Compound Stock: 10 mM in DMSO Sub stock (100 μM): 4 μl of 10 mM Compound Stock+398 μl Acetonitrile. Working plate (2 μM): 10 μl of 100 μM Sub stock+490 μl buffer Assay Procedure Incubate all plastic materials including tips at 37° C. overnight. Incubate LM suspension and NRS at 37° C. for 15 min before use. Add 40 μl buffer to the wells of blank plate. Add 40 μl compound (from working plate) to 0, 5, 10, 20, 30 and 60 min plates. Initiate reaction by adding 40 μl of LM+NRS suspension in each plate. […]

Sequence of Granzyme B (P10144 whole entry): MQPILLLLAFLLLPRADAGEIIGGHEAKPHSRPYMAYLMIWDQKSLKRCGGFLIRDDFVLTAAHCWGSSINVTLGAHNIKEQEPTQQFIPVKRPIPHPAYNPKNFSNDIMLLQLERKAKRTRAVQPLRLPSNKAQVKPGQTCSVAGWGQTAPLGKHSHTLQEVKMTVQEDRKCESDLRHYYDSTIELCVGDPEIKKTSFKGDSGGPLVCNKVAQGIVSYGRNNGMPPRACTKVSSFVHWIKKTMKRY

IC50: > 5 µM
SMILES: O=C(Cc1ccccc1)NCC(=O)N[C@H]1CCc2cccc3c2N(C1=O)[C@H](C(=O)NCc1c[nH]nn1)C3
